This note sets out measurements from patent US20220332839A1, “USE OF PRG4 TO TREAT CANCER” (Lubris LLC, priority 2019, published 2022).

For experiment [1], the system named is lubricin (PRG4) mRNA. As to the kind of experiment: PRG4 mRNA expression in CAFs and ex vivo HCC specimens. Particulars: 48 hours; CAFs (p<0.01) and HCC samples (p<0.05). The experiment is classed as cell-based, human. How it is done: RNA extraction and cDNA synthesis: […] of frozen ex-vivo treated HCC tissues were ground with a mortar-pestle in the presence of liquid nitrogen until a thin powder was obtained. The ground tissues were lysed with 0.5-1 ml of RLT buffer+1% (BME) and then processed according to the manufacturer's recommendations (RNeasy kit, Qiagen). […] The obtained RNA was assayed for quality and concentration using the NanoDrop 2000/2000c (Thermo Fisher Scientific). cDNA was synthetized using the High Capacity cDNA reverse transcription kit (Thermo Fisher Scientific), according to relative datasheet.
Real time PCR: One ng/μl of cDNA was used in total 20 μl reaction mix in the presence of 500 nM of each forward and reverse primer referred to a specific gene of interest, and 2×SYBR green master mix (Bio-Rad). The reaction was conducted in a CFX96 Touch Real-Time Detection System (Bio-Rad).
CAFs isolation: Immediately after surgical resection, HCC tumoral and peritumoral specimens were minced into 0.5-1 cm pieces and left in MACS Tissue Storage Solution (Miltenyi Biotec). The tissues were then further cut into smaller size pieces (1-2 mm), washed three times in Hanks balanced salt solution (HBSS), and then incubated in HBSS in the presence of type IV collagenase (Thermo Fisher Scientific) and 3 mM CaCl2 at 37° C. under gentle rotation for 4 hours. At the end of this step, the dissociation was mechanically facilitated by pipetting up-down the digested tissues with a large size orifice 50 ml pipette. The floating cells were collected and washed three times with HBSS and seeded in normal culture conditions in IMDM+20% FBS. The decanted, partially digested tissue specimens were subjected to a second round of digestion (as previously described). The resulting dissociated cells were washed with HBSS and cultured in IMDM+20% FBS. […] The presence of minimal contaminating non-fibroblastic cells (mostly cancerous hepatocytes, cholangiocytes and macrophages) was evaluated using antibodies to EpCAM, CD45, and CD11b.

Experiment [2] deals with HLE, HLF and PLC/DC/19 cells. As to the kind of experiment: 72-hour proliferation assay, CD44 positive HCC cells. The experiment is classed as cell-based, human. To be noted: drug 2.5 μM, rhPRG4 12.5 to 100 μg/ml. The protocol:
Proliferation assay: In 100 μl complete medium, 3,000 cells were seeded in wells of a 96-well plate and left overnight to allow complete attachment. The next day (at time t=0 hours), the medium was removed and replaced with 100 μl of fresh medium in the presence/absence of Sorafenib (2.5 μM), Regorafenib (2.5 μM), rhPRG4 (12.5 to 100 μg/ml). Dimethyl sulfoxide (DMSO) and PBS+0.01% Tween-20 were used as vehicles of Sorafenib/Regorafenib, and rhPRG4, respectively. Cells in triplicate wells for each cell line were fixed at t=0 hours with 4% paraformaldehyde (PFA, pH 7.6, 10 min incubation), then stained with crystal violet (CV) and thoroughly washed to remove the excess staining. After 72 hours, the cells were fixed by adding 100 μl of 4% PFA directly to the medium (2% final PFA concentration, 20 min incubation), and processed for CV staining as previously described. Then, 100 or 200 μl of 1% sodium dodecyl-sulphate were added to the wells and the plates were left under shaking until complete CV release from stained cells. Optical density was at 595 nm wavelength measured using a plate reader.
Characterization of the primary HCC cells line PLC/DC/19: The primary HCC cell line, PLC/DC/19, was isolated from freshly collected surgically resected HCC specimen following the same isolation procedure to isolate CAFs. […]

In experiment [3] the target is T1, immobilized CD44-IgG1Fc (Homo sapiens, UniProt P16070).
T1 construct: purchased R & D systems
The experiment is described as follows: Surface plasmon resonance binding of rhPRG4 to CD44 and competition with HMW HA. How it is done: Binding of rhPRG4 to CD44-IgG1Fc was investigated using surface plasmon resonance (Biacore T100, GE Healthcare Lifesciences, NJ, USA). Series S chips were functionalized using the human antibody capture kit (GE Life Sciences) and either CD44-IgG1Fc or IgG1FC was allowed to bind to the surface of the functionalized chips in flow cell 1 (Fc1) and flow cell 2 (Fc2), respectively. rhPRG4 was injected at 30 μL/min for 8 min at concentrations of 300, 250, 200, 150, 100 and 50 μg/mL followed by a 10 min dissociation using 0.1M HEPES, 1.5M NaCl, 30 mM EDTA, and 0.5% P20 (GE Life Sciences). The surface of the chip was regenerated at the end of each cycle with 1 min pulse of 3M MgCl2. Each analyte concentration was injected in duplicate. The resulting curves were double referenced (i.e. Fc2-Fc1, followed by subtraction of the 0 μg/mL curve). The binding kinetics and binding affinity were determined by BiaEvaluation software, using 1:1 binding/conformational change model or by steady-state equilibrium, respectively. To study the competition between rhPRG4 and HMW HA in binding to CD44, rhPRG4 was injected at concentrations ranging between 0 and 300 μg/mL as described above. Following the end of dissociation phase, HMW HA was injected at 50 μg/mL (30 μL per min) for 1 min. […]
Background: Surface plasmon resonance follows binding to a sensor surface in real time, without labels.

Experiment [4] has as its system non-metastatic triple negative breast cancer. The experiment is described as follows: Treatment of a human with triple negative breast cancer, local injection. The format is in vivo. How it is done: (§1) A human diagnosed with non-metastatic triple negative breast cancer is administered recombinant human PRG4 (rhPRG4) by local injection to the area of the tumor. Administration is done under local anesthesia. A total amount of 2 mL of rhPRG4 in physiological saline at a concentration of 100 ug/mL is administered via a 14 gauge needle. Several injections are made into the tumor and over its surface in order to disperse the dose throughout the tumor area. The dose is administered once weekly for four weeks.
as §1, with “weeks. During the dosing rhPRG4 schedule, the patient also receives a cocktail of taxane and doxorubicin per standard protocols.” for “weeks.”

In the case of “TGFβ: recombinant human mature transforming growth factor beta (R&D systems) [reference compound]”, the “expression of lubricin mRNA” value in experiment [1] is reported as “significantly enhanced the expression of lubricin”.
Consider “rhPRG4: full-length recombinant human PRG4 (lubricin) glycoprotein produced by CHO-M cells; residues 25-1404 of SEQ ID NO:1”, for which the “effectiveness of Sorafenib or Regorafenib when coupled with rhPRG4” value in experiment [2] is “strongly and synergistically improved their effectiveness”. Moreover, in experiment [3] (based on a rhPRG4 molecular weight of 240 KDa, read-out: apparent Kd), the Kd is about 38 nM. Besides, the “effect on binding of HMW HA to recombinant CD44” value in experiment [3] (rhPRG4 0-300 μg/mL, then HMW HA 50 μg/mL) was “interfered with binding of HMW HA”. The “tumor size by CT scan after four weeks” value in experiment [4] (2 mL of 100 ug/mL rhPRG4, local injection, once weekly for four weeks) is “tumor has shrunk in size”. The “tumor size by CT scan after four weeks, with taxane and doxorubicin” value in experiment [4] (2 mL of 100 ug/mL rhPRG4 locally weekly plus taxane and doxorubicin) was “shrunk in size and at a rate faster”.
